Measured values as given in patent US20260327204A1, “DEGRADERS OF CYCLIN-DEPENDENT KINASE 12/13, COMPOSITIONS, AND USES THEREOF” (ZHEJIANG UNIVERSITY, priority 2023, published 2026).
Like-named read-outs stand apart in the source and are kept apart here.

Key:
[1] = molecular target: CDK12 (Homo sapiens, UniProt Q9NYV4); experiment: Western blot degradation of CDK12 (Example 2); type: cell-based; set-up: degradation of CDK12/13 protein in leukemia cells KASUMI-1, MV4-11, and Jurkat; endogenous in cells
Procedure, shortened: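 Leukemia lines KASUMI-1, MV4-11, Jurkat, plus MDA-MB-231 for a concentration series, treated at 0.01–3 μM for 3–48 h at 37 °C against DMSO control. Lysates in 4% SDS; CDK12/13 band intensity normalized to β-Actin or GAPDH to give degradation rate.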

[2] = molecular target: T1, CDK13 (Homo sapiens, UniProt Q14004); experiment: Western blot degradation of CDK13 (Example 2); type: cell-based; set-up: degradation of CDK12/13 protein in leukemia cells KASUMI-1, MV4-11, and Jurkat; endogenous in cells; details: HCT116, colorectal cancer cells
[3] = molecular target: T1, CDK13; experiment: Western blot degradation of CDK13 (Example 2); type: cell-based; set-up: degradation of CDK12/13 protein in leukemia cells KASUMI-1, MV4-11, and Jurkat; endogenous in cells
[4] = Liver microsome stability, rat; type: in vitro ADME; details: liver microsomes
Procedure: (§1) • Compounds: Ketanserin, Formula 18, Formula 45 • Liver microsomes: Human liver microsomes (purchased from BioreclamationIVT); Dog, mouse, rat, and monkey liver microsomes (purchased from Xenotech)
(§2) Preparation of 500 μM compound solution: Add 5 μL of 10 mM compound solution and 95 μL of DMSO to an EP tube.
(§3) Preparation of solution containing 0.75 mg/mL liver microsomes and 1.5 μM compound: Add 1.5 μL of the 500 μM compound solution, 18.75 μL of the 20 mg/mL liver microsome solution, and 479.75 μL of PBS to an EP tube.
(§4) Preparation of 6 mM NADPH solution: Dissolve 5 mg of NADPH in 1 mL of PBS solution.
(§5) Add 30 μL of the solution containing 0.75 mg/mL liver microsomes and a concentration gradient of the compound to a 96-well plate. Add 15 μL of the 6 mM NADPH solution and 150 μL of a 1:1 acetonitrile:methanol solution containing an internal standard (IS). Vortex and centrifuge at 6,000 rpm for 10 min. 80 μL of the supernatant from each concentration sample is transferred to a 96-well plate containing 140 μL of pure water for LC/MS detection (injection volume of […]). […]
(§6) 80 μL of the supernatant from each well is transferred to a 96-well plate containing 140 μL of pure water for LC/MS detection (injection volume of […]). The compound concentration value is determined by comparing the corresponding mass spectrometry peak area with the standard curve. […]

[5] = Liver microsome stability, human; type: in vitro ADME; details: liver microsomes
Procedure: as §1, §2, §3, §4, §5, §6

[6] = Liver microsome stability, monkey; type: in vitro ADME; details: liver microsomes
Procedure: as §1, §2, §3, §4, §5, §6

[7] = Liver microsome stability, dog; type: in vitro ADME; details: liver microsomes
Procedure: as §1, §2, §3, §4, §5, §6

[8] = tested on: tumor cells MDA-MB-231, MV4-11, and KASUMI-1 and normal cells L-02 and HK-2; experiment: Survival of tumor and normal cells (CCK8 / SRB); type: cell-based; details: 72 h, concentration gradient, FIG. 10
Procedure: The proliferation inhibition of compounds on leukemia cell lines MV4-11 and KASUMI-1 was determined using the CCK8 assay, while the inhibition on solid tumor cell lines MDA-MB-231 was determined using the Sulforhodamine B (SRB) assay.
CCK8 Assay: First, MV4-11 and KASUMI-1 cells were seeded in a 96-well plate at a density of 5,000 cells per well. Then, a concentration gradient (0.03 μM-10 μM) of the compounds was administered for 72 h, with DMSO solvent serving as the negative control. At the end of the treatment, 10 μL of CCK8 reagent was added to each well. The plate was incubated for 4 hours at 37 °C in the dark. After mixing, the absorbance value was measured at 450 nm.
SRB Assay: First, MDA-MB-231, L-02, and HK-2 cells were seeded in a 96-well plate at a density of 3,000 cells per well. After 8-12 h of cell adhesion, a concentration gradient (62.5 nM-10 μM) of the compounds was administered for 72 h, with DMSO solvent serving as the negative control. At the end of the treatment, the cells were washed once with 70 μL of PBS, then fixed with 70 μL of 10% trichloroacetic acid at 4 °C for 1 h. After rinsing with tap water and drying in an oven, 70 μL of SRB staining solution was added to each well for 20 min at room temperature. […] Finally, 150 μL of 10 mM Tris-base dissolving solution was added, and the plate was shaken for 15 min before the absorbance value was measured at 540 nm.

T1 sequence (Q14004 whole entry): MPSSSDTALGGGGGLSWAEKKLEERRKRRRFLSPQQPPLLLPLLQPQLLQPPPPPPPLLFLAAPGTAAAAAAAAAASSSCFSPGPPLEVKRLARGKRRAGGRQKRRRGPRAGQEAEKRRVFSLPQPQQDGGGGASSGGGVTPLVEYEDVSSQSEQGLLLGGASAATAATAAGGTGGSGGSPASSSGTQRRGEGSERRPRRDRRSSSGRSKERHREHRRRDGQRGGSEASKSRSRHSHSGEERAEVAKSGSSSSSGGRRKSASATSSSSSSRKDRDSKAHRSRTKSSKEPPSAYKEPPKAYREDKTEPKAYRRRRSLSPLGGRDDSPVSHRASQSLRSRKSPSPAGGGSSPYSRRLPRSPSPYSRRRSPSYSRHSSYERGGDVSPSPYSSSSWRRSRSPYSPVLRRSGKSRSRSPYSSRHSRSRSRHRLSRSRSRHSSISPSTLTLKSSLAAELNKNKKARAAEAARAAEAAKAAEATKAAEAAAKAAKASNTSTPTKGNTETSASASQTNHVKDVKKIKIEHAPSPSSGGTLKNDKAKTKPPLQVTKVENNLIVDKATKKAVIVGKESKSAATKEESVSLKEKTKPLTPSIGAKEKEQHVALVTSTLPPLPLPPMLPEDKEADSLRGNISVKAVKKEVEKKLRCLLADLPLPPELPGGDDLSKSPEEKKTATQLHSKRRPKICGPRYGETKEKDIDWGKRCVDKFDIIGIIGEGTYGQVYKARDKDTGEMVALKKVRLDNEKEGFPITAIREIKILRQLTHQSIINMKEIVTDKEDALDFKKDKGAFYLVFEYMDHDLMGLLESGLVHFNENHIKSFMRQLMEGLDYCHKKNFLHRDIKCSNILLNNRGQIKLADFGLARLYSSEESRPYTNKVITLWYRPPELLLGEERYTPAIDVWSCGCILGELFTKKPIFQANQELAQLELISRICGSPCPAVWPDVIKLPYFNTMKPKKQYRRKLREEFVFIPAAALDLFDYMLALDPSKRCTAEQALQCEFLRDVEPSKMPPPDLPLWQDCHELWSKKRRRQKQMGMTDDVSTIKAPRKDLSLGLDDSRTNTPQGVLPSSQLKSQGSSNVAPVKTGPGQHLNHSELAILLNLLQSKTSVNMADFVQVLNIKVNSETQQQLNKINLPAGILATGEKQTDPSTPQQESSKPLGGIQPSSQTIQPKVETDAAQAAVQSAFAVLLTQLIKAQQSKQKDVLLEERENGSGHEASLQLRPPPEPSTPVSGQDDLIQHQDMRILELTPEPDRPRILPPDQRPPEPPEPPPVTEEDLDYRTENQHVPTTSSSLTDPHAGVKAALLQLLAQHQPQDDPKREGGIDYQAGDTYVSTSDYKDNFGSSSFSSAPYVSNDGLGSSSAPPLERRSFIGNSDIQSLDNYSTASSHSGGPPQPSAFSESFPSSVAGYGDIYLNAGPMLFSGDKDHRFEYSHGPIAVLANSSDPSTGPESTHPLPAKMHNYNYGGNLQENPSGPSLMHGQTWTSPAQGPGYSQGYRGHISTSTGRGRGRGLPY
T1 sequence (O75909 whole entry partner): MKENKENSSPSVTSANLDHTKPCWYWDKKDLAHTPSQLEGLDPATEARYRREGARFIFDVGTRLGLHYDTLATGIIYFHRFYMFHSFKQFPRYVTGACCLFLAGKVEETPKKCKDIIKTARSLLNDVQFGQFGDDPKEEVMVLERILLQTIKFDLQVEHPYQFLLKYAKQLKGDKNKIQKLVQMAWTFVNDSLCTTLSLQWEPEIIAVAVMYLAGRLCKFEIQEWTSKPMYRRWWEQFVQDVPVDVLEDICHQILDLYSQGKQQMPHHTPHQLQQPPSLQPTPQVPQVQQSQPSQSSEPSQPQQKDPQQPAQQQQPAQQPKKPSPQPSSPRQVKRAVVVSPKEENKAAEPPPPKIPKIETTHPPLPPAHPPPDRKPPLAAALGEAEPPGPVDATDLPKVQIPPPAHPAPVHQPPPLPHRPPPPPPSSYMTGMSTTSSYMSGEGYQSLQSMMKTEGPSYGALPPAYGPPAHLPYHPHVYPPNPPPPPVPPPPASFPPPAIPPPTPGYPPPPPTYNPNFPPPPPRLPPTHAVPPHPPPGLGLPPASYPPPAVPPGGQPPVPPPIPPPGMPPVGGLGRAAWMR
CDK12, sequence (Q9NYV4 whole entry): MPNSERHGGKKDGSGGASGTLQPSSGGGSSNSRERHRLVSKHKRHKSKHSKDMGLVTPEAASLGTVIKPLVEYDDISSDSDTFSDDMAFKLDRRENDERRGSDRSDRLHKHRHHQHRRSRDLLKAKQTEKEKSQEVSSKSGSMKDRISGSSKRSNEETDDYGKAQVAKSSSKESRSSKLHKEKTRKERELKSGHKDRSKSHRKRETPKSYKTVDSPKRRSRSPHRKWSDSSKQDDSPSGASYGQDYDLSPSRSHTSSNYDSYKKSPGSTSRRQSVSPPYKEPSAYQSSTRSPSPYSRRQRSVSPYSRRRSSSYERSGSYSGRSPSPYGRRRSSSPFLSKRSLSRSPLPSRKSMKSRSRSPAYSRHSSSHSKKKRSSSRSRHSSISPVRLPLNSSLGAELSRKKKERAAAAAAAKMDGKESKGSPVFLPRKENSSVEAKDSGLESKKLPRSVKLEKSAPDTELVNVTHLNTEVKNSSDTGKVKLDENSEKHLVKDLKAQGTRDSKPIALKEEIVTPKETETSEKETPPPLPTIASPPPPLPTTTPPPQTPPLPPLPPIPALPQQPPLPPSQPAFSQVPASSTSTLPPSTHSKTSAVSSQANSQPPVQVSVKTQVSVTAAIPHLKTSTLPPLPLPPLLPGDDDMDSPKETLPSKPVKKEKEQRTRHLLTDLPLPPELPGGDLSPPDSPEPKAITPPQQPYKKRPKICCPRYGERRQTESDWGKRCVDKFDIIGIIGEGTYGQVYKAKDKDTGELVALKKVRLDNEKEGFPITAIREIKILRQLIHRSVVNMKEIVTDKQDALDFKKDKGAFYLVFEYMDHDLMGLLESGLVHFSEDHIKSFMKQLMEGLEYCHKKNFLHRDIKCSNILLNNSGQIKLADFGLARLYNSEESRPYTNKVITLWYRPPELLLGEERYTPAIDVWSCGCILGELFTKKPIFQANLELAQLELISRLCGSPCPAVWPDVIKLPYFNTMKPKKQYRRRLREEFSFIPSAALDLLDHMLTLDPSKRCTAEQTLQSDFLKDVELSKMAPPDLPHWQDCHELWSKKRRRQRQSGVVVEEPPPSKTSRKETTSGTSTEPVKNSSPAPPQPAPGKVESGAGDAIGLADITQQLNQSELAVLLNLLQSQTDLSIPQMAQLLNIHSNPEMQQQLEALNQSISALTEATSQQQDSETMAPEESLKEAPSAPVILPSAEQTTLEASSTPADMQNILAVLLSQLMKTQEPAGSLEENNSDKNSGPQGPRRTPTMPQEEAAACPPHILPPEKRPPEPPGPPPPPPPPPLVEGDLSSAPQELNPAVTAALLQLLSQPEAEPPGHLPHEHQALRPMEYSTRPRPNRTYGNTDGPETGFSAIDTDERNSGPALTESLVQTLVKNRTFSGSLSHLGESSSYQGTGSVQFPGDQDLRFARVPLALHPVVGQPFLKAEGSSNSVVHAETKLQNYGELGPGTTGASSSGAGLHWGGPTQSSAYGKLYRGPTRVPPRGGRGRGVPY
CDK12, sequence (O75909 whole entry partner): as the sequence (O75909 whole entry partner) above

Structure (SMILES): Cc1ncsc1-c1ccc([C@H](C)NC(=O)[C@@H]2C[C@@H](O)CN2C(=O)[C@@H](NC(=O)CN2CCN(c3ncc(-c4ccc(N(C(=O)NCc5ccccc5)[C@H]5CC[C@H](Nc6ccc(C#N)cn6)CC5)cc4)cn3)CC2)C(C)(C)C)cc1 [Formula 45]
- DC50 ([1]; DC50 classes, cell line not given, read-out: CDK12 degradation Activity): < 100 nM
- degradation of CDK12 ([1]; FIGS. 2-9): has the strongest degradation effect
- DC50 ([1]; HCT116, colorectal cancer cells, read-out: CDK12 DC50): 34 nM
- DC50 ([1]; KASUMI-1, leukemia cells, read-out: CDK12 DC50): 28 nM
- DC50 ([1]; MDA-MB-231, breast cancer cells, read-out: CDK12 DC50): 29 nM
- DC50 ([1]; MV4-11, leukemia cells, read-out: CDK12 DC50): 30 nM
- DC50 [2]: 24 nM
- DC50 ([3]; DC50 classes, cell line not given, read-out: CDK13 degradation Activity): < 100 nM
- degradation of CDK13 ([3]; FIGS. 2-9): has the strongest degradation effect
- DC50 ([3]; KASUMI-1, leukemia cells, read-out: CDK13 DC50): 17 nM
- DC50 ([3]; MDA-MB-231, breast cancer cells, read-out: CDK13 DC50): 18 nM
- DC50 ([3]; MV4-11, leukemia cells, read-out: CDK13 DC50): 21 nM
- half-life [4]: > 45 min
- half-life [5]: > 45 min
- half-life [6]: > 45 min
- half-life [7]: > 45 min

Structure (SMILES): CN(C)C/C=C/C(=O)Nc1ccc(C(=O)N2CCC[C@@H](Nc3ncc(Cl)c(-c4c[nH]c5ccccc45)n3)C2)cc1 [THZ-531]
- proliferation inhibitory activity on normal and tumor cells [8]: indiscriminate proliferation inhibitory activity on both normal and tumor cells
